Patent publication US20240101576A1, “HETEROCYCLIC INHIBITORS OF EGFR AND/OR HER2, FOR USE IN THE TREATMENT OF CANCER” (Scorpion Therapeutics, Inc., priority 2020, published 2024)

Assays:
Assay type in all cases: cell-based
EGFR WT (Ba/F3 cells) = biological target: T1, EGFR WT (Ba/F3 cells) (Homo sapiens, UniProt P00533); assay: Inhibitor activity on EGFR-dependent cell growth (CellTiter-Glo, 72 h), Ba/F3 EGFR WT; conditions: read-out: BaF3 WT IC50
T1 construct: expressed in transfected cells; host or cells: Ba/F3 (murine pro-B cells), retroviral transduction, puromycin selection, maintained with EGF
T1 sequence (P00533 25-1210): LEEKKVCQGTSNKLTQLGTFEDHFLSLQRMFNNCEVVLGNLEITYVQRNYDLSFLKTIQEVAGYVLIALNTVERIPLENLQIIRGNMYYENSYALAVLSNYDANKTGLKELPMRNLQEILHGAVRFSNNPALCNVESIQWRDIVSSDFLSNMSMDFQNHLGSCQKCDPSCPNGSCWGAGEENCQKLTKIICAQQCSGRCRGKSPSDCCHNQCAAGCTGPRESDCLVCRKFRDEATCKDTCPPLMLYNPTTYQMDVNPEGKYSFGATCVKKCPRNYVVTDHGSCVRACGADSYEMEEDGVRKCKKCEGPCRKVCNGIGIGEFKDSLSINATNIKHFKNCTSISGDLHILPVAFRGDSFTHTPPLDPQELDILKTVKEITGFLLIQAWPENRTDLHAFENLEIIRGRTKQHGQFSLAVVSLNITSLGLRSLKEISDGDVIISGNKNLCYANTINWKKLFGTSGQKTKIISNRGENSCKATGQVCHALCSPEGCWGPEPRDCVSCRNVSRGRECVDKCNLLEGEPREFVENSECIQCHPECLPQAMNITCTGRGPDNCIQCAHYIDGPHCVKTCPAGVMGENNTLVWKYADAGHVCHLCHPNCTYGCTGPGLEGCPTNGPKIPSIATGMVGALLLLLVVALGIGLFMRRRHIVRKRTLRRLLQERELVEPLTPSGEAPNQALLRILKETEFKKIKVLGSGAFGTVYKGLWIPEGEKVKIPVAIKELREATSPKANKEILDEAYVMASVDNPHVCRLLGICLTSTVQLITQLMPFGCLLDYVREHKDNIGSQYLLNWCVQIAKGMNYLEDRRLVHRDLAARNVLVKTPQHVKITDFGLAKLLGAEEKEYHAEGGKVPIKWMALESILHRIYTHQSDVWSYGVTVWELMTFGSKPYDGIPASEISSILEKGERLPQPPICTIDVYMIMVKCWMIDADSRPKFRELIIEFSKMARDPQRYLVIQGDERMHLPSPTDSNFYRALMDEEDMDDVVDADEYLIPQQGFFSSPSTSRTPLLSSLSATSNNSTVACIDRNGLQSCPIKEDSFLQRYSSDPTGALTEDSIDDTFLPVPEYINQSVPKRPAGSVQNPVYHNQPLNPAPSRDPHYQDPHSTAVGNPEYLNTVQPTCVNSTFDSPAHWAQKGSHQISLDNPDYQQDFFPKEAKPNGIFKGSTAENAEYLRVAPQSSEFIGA
Procedure, shortened: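 This growth assay used Ba/F3 cells that depend on wild-type EGFR and are kept in EGF without IL3. Compounds were made up as 10 mM DMSO stocks and diluted 3-fold over 10 points. 120 nL went onto 600 cells/well. After 72 hours, 40 μL CellTiter-Glo was added and luminescence read on EnVision after 30 min.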

[1] = biological target: T2, EGFR exon 20 NPG Ins D770_N771 (Ba/F3 cells) (Homo sapiens, UniProt P00533, INS770NPG); assay: Inhibitor activity on EGFR-dependent cell growth (CellTiter-Glo, 72 h), Ba/F3 EGFR exon 20 NPG Ins; conditions: read-out: BaF3 NPG IC50
T2 construct: expressed in transfected cells; host or cells: Ba/F3 (murine pro-B cells), retroviral transduction, puromycin selection, IL3-independent pool
T2 sequence (P00533 with tags, fused parts or gaps INS770NPG): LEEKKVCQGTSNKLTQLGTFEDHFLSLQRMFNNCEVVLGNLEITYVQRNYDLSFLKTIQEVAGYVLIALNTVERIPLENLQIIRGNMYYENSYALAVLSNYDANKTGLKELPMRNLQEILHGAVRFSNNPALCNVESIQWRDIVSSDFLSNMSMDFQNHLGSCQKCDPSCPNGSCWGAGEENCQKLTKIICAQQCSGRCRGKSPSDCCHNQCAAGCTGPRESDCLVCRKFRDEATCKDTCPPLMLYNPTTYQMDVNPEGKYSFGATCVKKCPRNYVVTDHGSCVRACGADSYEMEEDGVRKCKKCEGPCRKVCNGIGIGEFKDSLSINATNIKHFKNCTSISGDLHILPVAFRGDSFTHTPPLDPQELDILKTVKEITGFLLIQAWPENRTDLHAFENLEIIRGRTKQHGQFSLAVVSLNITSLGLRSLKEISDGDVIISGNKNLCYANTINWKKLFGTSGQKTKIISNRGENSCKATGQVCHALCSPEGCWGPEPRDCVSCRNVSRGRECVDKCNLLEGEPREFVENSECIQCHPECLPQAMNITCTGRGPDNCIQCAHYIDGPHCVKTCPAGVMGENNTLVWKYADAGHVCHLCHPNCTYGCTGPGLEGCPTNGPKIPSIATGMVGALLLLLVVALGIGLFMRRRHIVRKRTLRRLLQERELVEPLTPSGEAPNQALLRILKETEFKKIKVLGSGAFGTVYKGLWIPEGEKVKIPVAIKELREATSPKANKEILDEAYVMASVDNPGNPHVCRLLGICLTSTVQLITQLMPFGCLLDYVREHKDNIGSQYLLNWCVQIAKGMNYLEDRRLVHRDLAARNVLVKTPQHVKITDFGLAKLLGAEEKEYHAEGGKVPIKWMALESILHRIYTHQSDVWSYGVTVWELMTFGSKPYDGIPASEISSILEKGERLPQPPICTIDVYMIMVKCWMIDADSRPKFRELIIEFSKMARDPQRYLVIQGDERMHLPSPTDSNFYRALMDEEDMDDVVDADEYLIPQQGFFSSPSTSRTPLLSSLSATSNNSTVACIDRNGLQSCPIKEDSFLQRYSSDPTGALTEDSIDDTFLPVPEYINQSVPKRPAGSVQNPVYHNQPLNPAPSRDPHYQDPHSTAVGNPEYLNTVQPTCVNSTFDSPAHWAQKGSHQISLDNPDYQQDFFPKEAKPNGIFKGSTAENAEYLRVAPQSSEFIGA
Procedure, shortened: (§1)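 IC50s derive from a sigmoidal dose–response fit of CellTiter-Glo signal. The signal was normalised between […]-treated cells and cell-free medium. Ba/F3 mutant-EGFR cells, seeded at 400–800/well depending on the line, had 72 h of exposure to a 10-point, 3-fold compound series.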

[2] = biological target: T3, EGFR exon 20 ASV Ins V769_D770 (Ba/F3 cells) (Homo sapiens, UniProt P00533, INS769ASV); assay: Inhibitor activity on EGFR-dependent cell growth (CellTiter-Glo, 72 h), Ba/F3 EGFR exon 20 ASV Ins; conditions: read-out: BaF3 ASV IC50
T3 construct: expressed in transfected cells; host or cells: Ba/F3 (murine pro-B cells), retroviral transduction, puromycin selection, IL3-independent pool
Procedure, shortened: as §1

[3] = biological target: T4, EGFR exon 20 SVD Ins D770_N771 (Ba/F3 cells) (Homo sapiens, UniProt P00533, INS770SVD); assay: Inhibitor activity on EGFR-dependent cell growth (CellTiter-Glo, 72 h), Ba/F3 EGFR exon 20 SVD Ins; conditions: read-out: BaF3 SVD IC50
T4 construct: expressed in transfected cells; host or cells: Ba/F3 (murine pro-B cells), retroviral transduction, puromycin selection, IL3-independent pool
T4 sequence (P00533 with tags, fused parts or gaps INS770SVD): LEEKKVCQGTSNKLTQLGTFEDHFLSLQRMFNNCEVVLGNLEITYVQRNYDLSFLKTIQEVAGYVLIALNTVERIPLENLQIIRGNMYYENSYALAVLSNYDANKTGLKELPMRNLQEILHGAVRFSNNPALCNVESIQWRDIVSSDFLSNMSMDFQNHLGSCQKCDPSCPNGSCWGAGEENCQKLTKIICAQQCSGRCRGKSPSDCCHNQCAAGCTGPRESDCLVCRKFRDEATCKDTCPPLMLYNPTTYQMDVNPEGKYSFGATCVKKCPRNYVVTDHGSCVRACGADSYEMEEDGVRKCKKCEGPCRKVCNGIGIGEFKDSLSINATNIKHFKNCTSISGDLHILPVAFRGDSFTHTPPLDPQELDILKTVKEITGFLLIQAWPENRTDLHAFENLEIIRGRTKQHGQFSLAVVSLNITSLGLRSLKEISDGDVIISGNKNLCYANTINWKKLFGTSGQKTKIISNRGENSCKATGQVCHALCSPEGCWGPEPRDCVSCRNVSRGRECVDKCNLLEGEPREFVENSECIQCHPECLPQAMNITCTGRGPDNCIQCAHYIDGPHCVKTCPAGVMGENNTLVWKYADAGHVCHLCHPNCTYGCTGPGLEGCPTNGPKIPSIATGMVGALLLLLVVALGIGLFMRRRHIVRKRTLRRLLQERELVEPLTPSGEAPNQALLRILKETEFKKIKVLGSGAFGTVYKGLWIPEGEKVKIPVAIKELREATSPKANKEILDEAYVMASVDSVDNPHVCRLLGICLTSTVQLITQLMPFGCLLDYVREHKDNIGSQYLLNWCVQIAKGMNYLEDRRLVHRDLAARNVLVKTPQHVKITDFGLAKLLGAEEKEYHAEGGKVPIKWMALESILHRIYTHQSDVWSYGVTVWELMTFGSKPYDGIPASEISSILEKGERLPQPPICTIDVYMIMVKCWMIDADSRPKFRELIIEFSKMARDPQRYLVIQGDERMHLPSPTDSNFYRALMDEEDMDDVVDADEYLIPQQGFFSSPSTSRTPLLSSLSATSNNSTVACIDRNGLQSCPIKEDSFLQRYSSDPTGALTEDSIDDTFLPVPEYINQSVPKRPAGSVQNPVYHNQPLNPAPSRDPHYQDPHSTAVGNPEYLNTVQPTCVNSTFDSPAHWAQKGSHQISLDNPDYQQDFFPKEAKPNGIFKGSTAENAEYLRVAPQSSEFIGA
Procedure, shortened: as §1

[4] = biological target: T5, EGFR exon 20 FQEA Ins A763_V764 (Ba/F3 cells) (Homo sapiens, UniProt P00533, INS763FQEA); assay: Inhibitor activity on EGFR-dependent cell growth (CellTiter-Glo, 72 h), Ba/F3 EGFR exon 20 FQEA Ins; conditions: read-out: BaF3 FQEA IC50
T5 construct: expressed in transfected cells; host or cells: Ba/F3 (murine pro-B cells), retroviral transduction, puromycin selection, IL3-independent pool
T5 sequence (P00533 with tags, fused parts or gaps INS763FQEA): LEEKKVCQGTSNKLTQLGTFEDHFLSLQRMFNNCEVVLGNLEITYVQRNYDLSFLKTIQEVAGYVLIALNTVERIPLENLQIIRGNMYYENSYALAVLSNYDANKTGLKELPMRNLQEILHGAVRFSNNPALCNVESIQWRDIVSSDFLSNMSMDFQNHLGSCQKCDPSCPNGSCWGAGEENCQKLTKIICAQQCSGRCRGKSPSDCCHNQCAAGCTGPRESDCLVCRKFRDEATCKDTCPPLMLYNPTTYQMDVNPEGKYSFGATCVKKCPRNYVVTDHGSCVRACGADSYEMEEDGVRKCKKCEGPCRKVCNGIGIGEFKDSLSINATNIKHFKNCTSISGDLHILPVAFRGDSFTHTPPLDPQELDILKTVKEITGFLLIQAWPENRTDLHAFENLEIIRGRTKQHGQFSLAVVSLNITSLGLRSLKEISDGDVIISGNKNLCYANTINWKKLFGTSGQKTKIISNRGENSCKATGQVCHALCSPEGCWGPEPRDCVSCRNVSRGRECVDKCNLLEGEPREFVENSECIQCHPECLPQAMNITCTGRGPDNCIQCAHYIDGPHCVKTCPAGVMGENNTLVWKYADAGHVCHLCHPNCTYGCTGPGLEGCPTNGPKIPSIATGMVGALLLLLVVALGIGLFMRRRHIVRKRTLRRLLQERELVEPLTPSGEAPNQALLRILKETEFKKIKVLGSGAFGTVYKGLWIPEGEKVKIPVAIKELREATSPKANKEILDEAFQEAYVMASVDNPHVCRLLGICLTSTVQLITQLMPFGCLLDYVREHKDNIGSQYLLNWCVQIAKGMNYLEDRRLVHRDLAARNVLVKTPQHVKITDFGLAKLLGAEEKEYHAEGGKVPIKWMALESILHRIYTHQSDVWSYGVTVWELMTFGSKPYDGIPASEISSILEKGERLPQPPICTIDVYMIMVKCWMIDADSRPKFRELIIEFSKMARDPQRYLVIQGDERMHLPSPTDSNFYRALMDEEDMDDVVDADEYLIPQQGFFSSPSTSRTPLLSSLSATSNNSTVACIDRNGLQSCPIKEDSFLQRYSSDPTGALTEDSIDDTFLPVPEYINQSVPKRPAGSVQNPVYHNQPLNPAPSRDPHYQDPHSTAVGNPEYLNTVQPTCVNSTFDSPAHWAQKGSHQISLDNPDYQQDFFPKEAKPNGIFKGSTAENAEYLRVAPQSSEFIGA
Procedure, shortened: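 Ba/F3, retrovirally transduced, puromycin-selected, grown without IL3; cells/well: L858R 400, L858R/C797S 600, exon 19del 800, FQEA 800. Cpds from 10 mM DMSO stock, 3-fold ×10 dilution, 120 nL per well; 72 h. CTG readout; IC50 via Hill equation.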

IC50 (EGFR WT (Ba/F3 cells)) [nM]	IC50 [1] [nM]	IC50 [2] [nM]	IC50 [3] [nM]	IC50 [4] [nM]	Structure (SMILES)
> 1000	100 to 1000	100 to 1000	100 to 1000	100 to 1000	COCC[C@H]1CNC(=O)c2c1[nH]c(-c1ccncc1F)c2Nc1cccc(F)c1OC [421a]
> 1000	100 to 1000	> 1000	> 1000	> 1000	COc1c(Cl)cccc1Nc1c(-c2ccncc2F)[nH]c2c1C(=O)NC[C@@H]2CC1COC1 [468a]
> 1000	> 1000	> 1000	> 1000	> 1000	COc1c(F)cccc1Nc1c(-c2ccncc2F)[nH]c2c1C(=O)NC[C@H]2CC1COC1 [469a]
> 1000	> 1000	> 1000	> 1000	> 1000	COc1c(F)cccc1Nc1c(-c2ccncc2F)[nH]c2c1C(=O)NC[C@@H]2CC1COC1 [469b]
> 1000	100 to 1000	100 to 1000	100 to 1000	100 to 1000	COc1c(F)cccc1Nc1c(-c2ccncc2F)[nH]c2c1C(=O)NC[C@@H]2C[C@H]1CCO1 [Compound 422c, (7S)-3-[(3-fluoro-2-methoxyphenyl)amino]-2-(3-fluoropyridin-4-yl)-7-[(2S)-oxetan-2-ylmethyl]-1H,5H,6H,7H-pyrrolo[3,2-c]pyridin-4-one]
100 to 1000	< 100	< 100	< 100	100 to 1000	COc1c(F)cccc1Nc1c(-c2ccncc2F)[nH]c2c1C(=O)NC[C@H]2C[C@H]1CCO1 [Compound 422d, (7R)-3-[(3-fluoro-2-methoxyphenyl)amino]-2-(3-fluoropyridin-4-yl)-7-[(2S)-oxetan-2-ylmethyl]-1H,5H,6H,7H-pyrrolo[3,2-c]pyridin-4-one]
> 1000	< 100	< 100	< 100	100 to 1000	COc1c(Cl)cccc1Nc1c(-c2ccncc2F)[nH]c2c1C(=O)NC[C@@H]2CC(=O)N(C)C [Compound 488]
> 1000	100 to 1000	100 to 1000	100 to 1000	100 to 1000	COc1c(F)cccc1Nc1c(-c2ccncc2F)[nH]c2c1C(=O)NC[C@@H]2C[C@@H]1COCCO1 [Compound 526, (7S)-7-[(2R)-1,4-dioxan-2-ylmethyl]-3-[(3-fluoro-2-methoxyphenyl)amino]-2-(3-fluoropyridin-4-yl)-1H,5H,6H,7H-pyrrolo[3,2-c]pyridin-4-one]
100 to 1000	< 100	< 100	< 100	< 100	COc1c(Cl)cccc1Nc1c(-c2ccnc3cccnc23)[nH]c2c1C(=O)NCC2 [Compound 683, 3-[(3-chloro-2-methoxyphenyl)amino]-2-(1,5-naphthyridin-4-yl)-1H,5H,6H,7H-pyrrolo[3,2-c]pyridin-4-one]
> 1000	< 100	100 to 1000	100 to 1000	100 to 1000	COc1c(Cl)cc(F)cc1Nc1c(-c2ccnc(N)n2)[nH]c2c1C(=O)NCC2 [Compound 714, 2-(2-aminopyrimidin-4-yl)-3-[(3-chloro-5-fluoro-2-methoxyphenyl)amino]-1H,5H,6H,7H-pyrrolo[3,2-c]pyridin-4-one; trifluoroacetic acid]
> 1000	100 to 1000	100 to 1000	100 to 1000	100 to 1000	CSc1c(F)cccc1Nc1c(-c2ccnc(N)n2)[nH]c2c1C(=O)NCC2 [Compound 716, 2-(2-aminopyrimidin-4-yl)-3-[[3-fluoro-2-(methylsulfanyl)phenyl]amino]-1H,5H,6H,7H-pyrrolo[3,2-c]pyridin-4-one; trifluoroacetic acid]
100 to 1000	< 100	< 100	< 100	< 100	COCC[C@H]1CNC(=O)c2c1[nH]c(-c1ccnc(N)n1)c2Nc1cccc(Cl)c1OC [Compound 727, (7S)-2-(2-aminopyrimidin-4-yl)-3-[(3-chloro-2-methoxyphenyl)amino]-7-(2-methoxyethyl)-1H,5H,6H,7H-pyrrolo[3,2-c]pyridin-4-one]
100 to 1000	< 100	–	–	< 100	COCC[C@@H]1CNC(=O)c2c1[nH]c(-c1ccncc1F)c2Nc1cccc(Cl)c1OC [Compound 746]
< 100	< 100	< 100	< 100	< 100	COc1c(Cl)cccc1Nc1c(-c2ccnc3ccc(OC4(C)CC4)nc23)[nH]c2c1C(=O)NCC2 [Compound 767, 3-[(3-chloro-2-methoxyphenyl)amino]-2-[6-(1-methylcyclopropoxy)-1,5-naphthyridin-4-yl]-1H,5H,6H,7H-pyrrolo[3,2-c]pyridin-4-one]
< 100	< 100	< 100	< 100	< 100	COc1c(Cl)cccc1Nc1c(-c2ccnc(Nc3ccn(C)n3)n2)[nH]c2c1C(=O)NCC2 [compound 509, 3-[(3-chloro-2-methoxyphenyl)amino]-2-{2-[(1-methylpyrazol-3-yl)amino]pyrimidin-4-yl}-1H,5H,6H,7H-pyrrolo[3,2-c]pyridin-4-one]
100 to 1000	< 100	< 100	< 100	–	COc1c(F)cccc1Nc1c(-c2ccnc(Nc3cnnn3C)n2)[nH]c2c1C(=O)NCC2 [compound 591, 3-[(3-fluoro-2-methoxyphenyl)amino]-2-{2-[(3-methyl-1,2,3-triazol-4-yl)amino]pyrimidin-4-yl}-1H,5H,6H,7H-pyrrolo[3,2-c]pyridin-4-one]
> 1000	> 1000	> 1000	> 1000	–	COc1c(Cl)cccc1Nc1c(-c2ccnc(Nc3nnn(C)c3C)n2)[nH]c2c1C(=O)NCC2 [compound 607, 3-[(3-chloro-2-methoxyphenyl)amino]-2-{2-[(1,5-dimethyl-1,2,3-triazol-4-yl)amino]pyrimidin-4-yl}-1H,5H,6H,7H-pyrrolo[3,2-c]pyridin-4-one]
> 1000	> 1000	> 1000	> 1000	–	COc1c(F)cccc1Nc1c(-c2ccnc(Nc3nnn(C)c3C)n2)[nH]c2c1C(=O)NCC2 [compound 608, 2-{2-[(1,5-dimethyl-1,2,3-triazol-4-yl)amino]pyrimidin-4-yl}-3-[(3-fluoro-2-methoxyphenyl)amino]-1H,5H,6H,7H-pyrrolo[3,2-c]pyridin-4-one]
100 to 1000	< 100	< 100	< 100	–	C=CC(=O)N1CCC2(CC1)CNC(=O)c1c2[nH]c(-c2ccnc(C)n2)c1Nc1cc(F)cc(Cl)c1OC [compound 642]
> 1000	100 to 1000	100 to 1000	100 to 1000	–	C=CC(=O)NCC[C@H]1CNC(=O)c2c1[nH]c(-c1ccnc(C)n1)c2Nc1cccc(Cl)c1OC [compound 653]
100 to 1000	< 100	< 100	< 100	–	C=CC(=O)NCC[C@@H]1CNC(=O)c2c1[nH]c(-c1ccnc(C)n1)c2Nc1cccc(Cl)c1OC [compound 654]
> 1000	< 100	< 100	< 100	–	COc1c(Cl)cccc1Nc1c(-c2ccnc(C)n2)[nH]c2c(C[C@H]3COCCO3)c[nH]c(=O)c12 [compound 659]
